Data reported in patent publication US11708348B2, “Protease inhibitors for treatment of coronavirus infections” (The Scripps Research Institute, priority 2021, dated 2023).
Like-named read-outs stand apart in the source and are kept apart here.

Test system: SARS-CoV-2 strain USA-WA1/2020
Experiment: microbe, parasite or virus in culture
Format: cell-based
Conditions: Severe acute respiratory syndrome coronavirus 2, HeLa-ACE2, 24 h, HeLa-ACE2 cells, SARS-CoV-2 infection, 24 h, read-out: EC50, uM (Hela)

Structure (SMILES) | EC50 | EC50 (class symbols)
CC1(C)[C@@H]2[C@@H](C(=O)N[C@@H](C[C@@H]3CCNC3=O)C(=O)COC(F)(F)F)N(C(=O)C(=O)NC3CC(F)(F)C3)C[C@@H]21 [Compound 536, (1R,2S,5S)-3-(2-((3,3-difluorocyclo-butyl)amino)-2-oxoacetyl)-6,6-dimethyl-N-((S)-3-oxo-1-((S)-2-oxopyrrolidin-3-yl)-4-(trifluoromethoxy)butan-2-yl)-3-azabicyclo-[3.1.0]hexane-2-carboxamide] | 0.05 to 0.2 µM | 
CC(C)NC(=O)C(=O)N1CC2(CC2)C[C@H]1C(=O)N[C@@H](C[C@@H]1CCNC1=O)C(=O)COC(F)(F)F [Compound 747, (S)-5-(2-(isopropylamino)-2-oxoacetyl)-N-((S)-3-oxo-1-((S)-2-oxopyrrolidin-3-yl)-4-(trifluoromethoxy)butan-2-yl)-5-azaspiro[2.4]heptane-6-carboxamide] | < 0.05 µM | 
CC(C)C[C@@H](O)C(=O)N(C(=O)[C@@H]1C[C@@]2(C)C[C@H]2N1)[C@@H](C[C@@H]1CCNC1=O)C(=O)COC(F)(F)F [Compound 449, (1R,3S,5R)-2-((R)-2-hydroxy-4-methylpentanoyl)-5-methyl-N-((S)-3-oxo-1-((S)-2-oxopyrrolidin-3-yl)-4-(trifluoromethoxy)butan-2-yl)-2-azabicyclo[3.1.0]-hexane-3-carboxamide] | 0.05 to 0.2 µM | 
CC(C)C[C@H](NC(=O)c1ncc(-c2cccc(F)c2)[nH]1)C(=O)N[C@@H](C[C@@H]1CCNC1=O)C(=O)COC(F)(F)F [Compound 209, 5-(3-fluorophenyl)-N-((S)-4-methyl-1-oxo-1-(((S)-3-oxo-1-((S)-2-oxopyrrolidin-3-yl)-4-(trifluoromethoxy)butan-2-yl)amino)pentan-2-yl)-1H-imidazole-2-carboxamide] |  | < 0.05 µM
CC(C)C[C@@H](C)C(=O)N1CC2(CC2)C[C@H]1C(=O)N[C@@H](C[C@@H]1CCNC1=O)C(=O)COC(F)(F)F [Compound 752, (S)-5-((R)-2,4-dimethylpentanoyl)-N-((S)-3-oxo-1-((S)-2-oxopyrrolidin-3-yl)-4-(trifluoromethoxy)butan-2-yl)-5-azaspiro[2.4]heptane-6-carboxamide] | < 0.05 µM | 
CC(C)C[C@H](NC(=O)C12CC(C)(CO1)C2)C(=O)N[C@@H](C[C@@H]1CCNC1=O)C(=O)COC(F)(F)F [Compound 313, 4-methyl-N-((S)-4-methyl-1-oxo-1-(((S)-3-oxo-1-((S)-2-oxopyrrolidin-3-yl)-4-(trifluoromethoxy)butan-2-yl)amino)pentan-2-yl)-2-oxabicyclo-[2.1.1]hexane-1-carboxamide] |  | 0.05 to 0.2 µM
CC(C)C[C@H](NC(=O)C(=O)Nc1ccccc1OC(F)F)C(=O)N[C@@H](C[C@@H]1CCNC1=O)C(=O)COc1c(F)c(F)cc(F)c1F [Compound 62, N1-(2-(difluoromethoxy)-phenyl)-N2-((S)-4-methyl-1-oxo-1-(((S)-3-oxo-1-((S)-2-oxopyrrolidin-3-yl)-4-(2,3,5,6-tetrafluorophenoxy)butan-2-yl)amino)pentan-2-yl)oxalamide] |  | < 0.05 µM
O=C(N[C@@H](CC1CC1)C(=O)N[C@@H](C[C@@H]1CCNC1=O)C(=O)COC(F)(F)F)c1cc(-c2ccccc2F)on1 [Compound 160, N-((S)-3-cyclopropyl-1-oxo-1-(((S)-3-oxo-1-((S)-2-oxopyrrolidin-3-yl)-4-(trifluoromethoxy)butan-2-yl)amino)propan-2-yl)-5-(2-fluorophenyl)isoxazole-3-carboxamide] |  | < 0.05 µM
CC(C)C[C@@H](O)C(=O)N1CCCC[C@H]1C(=O)N[C@@H](C[C@@H]1CCNC1=O)C(=O)COC(F)(F)F [Compound 636, (S)-1-((R)-2-hydroxy-4-methylpentanoyl)-N-((S)-3-oxo-1-((S)-2-oxopyrrolidin-3-yl)-4-(trifluoromethoxy)butan-2-yl)piperidine-2-carboxamide] | 0.05 to 0.2 µM | 
CC(C)C[C@H](NC(=O)OCc1ccc(F)cc1)C(=O)N[C@@H](C[C@@H]1CCNC1=O)C(=O)COc1c(F)c(F)cc(F)c1F [Compound 23, 4-fluorobenzyl ((S)-4-methyl-1-oxo-1-(((S)-3-oxo-1-((S)-2-oxopyrrolidin-3-yl)-4-(2,3,5,6-tetra-fluorophenoxy)butan-2-yl)amino)pentan-2-yl)carbamate] |  | 0.2 to 0.5 µM
O=C(CC(C(F)(F)F)C(F)(F)F)C(=O)N1CC2(CC2)C[C@H]1C(=O)N[C@@H](C[C@@H]1CCNC1=O)C(=O)COC(F)(F)F [Compound 743, (S)-N-((S)-3-oxo-1-((S)-2-oxopyrrolidin-3-yl)-4-(trifluoromethoxy)butan-2-yl)-5-(5,5,5-trifluoro-2-oxo-4-(trifluoromethyl)pentanoyl)-5-azaspiro[2.4]heptane-6-carboxamide] | < 0.05 µM | 
CC(C)C[C@H](NC(=O)c1ccc2ccccc2n1)C(=O)N[C@@H](C[C@@H]1CCNC1=O)C(=O)COc1c(F)c(F)cc(F)c1F [Compound 20, N-((S)-4-methyl-1-oxo-1-(((S)-3-oxo-1-((S)-2-oxopyrrolidin-3-yl)-4-(2,3,5,6-tetrafluorophenoxy)butan-2-yl)amino)pentan-2-yl)quinoline-2-carboxamide] |  | 0.2 to 0.5 µM
CN(C)S(=O)(=O)N(C)CC(=O)N1CC2(CC2)C[C@H]1C(=O)N[C@@H](C[C@@H]1CCNC1=O)C(=O)COC(F)(F)F [Compound 693, (S)-5-(N-(N,N-dimethylsulfamoyl)-N-methylglycyl)-N-((S)-3-oxo-1-((S)-2-oxopyrrolidin-3-yl)-4-(trifluoromethoxy)butan-2-yl)-5-azaspiro[2.4]heptane-6-carboxamide] | 0.2 to 0.5 µM | 
CC(C)(NC(=O)C(=O)N1C[C@H]2CCCC[C@H]2C[C@H]1C(=O)N[C@@H](C[C@@H]1CCNC1=O)C(=O)COC(F)(F)F)C(F)(F)F [Compound 487, (3S,4aS,8aS)-N-((S)-3-oxo-1-((S)-2-oxopyrrolidin-3-yl)-4-(trifluoromethoxy)butan-2-yl)-2-(2-oxo-2-((1,1,1-trifluoro-2-methylpropan-2-yl)amino)acetyl)-decahydroiso-quinoline-3-carboxamide] | 0.05 to 0.2 µM | 
CC(C)C[C@@H](O)C(=O)N1C[C@H](C)C[C@H]1C(=O)N[C@@H](C[C@@H]1CCNC1=O)C(=O)COC(F)(F)F [Compound 753, (2S,4R)-1-((R)-2-hydroxy-4-methylpentanoyl)-4-methyl-N-((S)-3-oxo-1-((S)-2-oxopyrrolidin-3-yl)-4-(trifluoromethoxy)butan-2-yl)pyrrolidine-2-carboxamide] | < 0.05 µM | 
CC(C)C[C@H](NC(=O)C(=O)NC(C)(C)C)C(=O)N[C@@H](C[C@@H]1CCNC1=O)C(=O)COC(F)(F)F [Compound 180, N1-(tert-butyl)-N2-((S)-4-methyl-1-oxo-1-(((S)-3-oxo-1-((S)-2-oxopyrrolidin-3-yl)-4-(trifluoromethoxy)butan-2-yl)amino)pentan-2-yl)oxalamide] |  | < 0.05 µM
CC(C)C[C@H](NC(=O)C(=O)NC12CC(C(F)(F)F)(C1)C2)C(=O)N[C@@H](C[C@@H]1CCNC1=O)C(=O)COC(F)(F)F [Compound 596, N1-((S)-4-methyl-1-oxo-1-(((S)-3-oxo-1-((S)-2-oxopyrrolidin-3-yl)-4-(trifluoromethoxy)butan-2-yl)amino)pentan-2-yl)-N2-(3-(trifluoromethyl)bi-cyclo[1.1.1]pentan-1-yl)oxalamide] | < 0.05 µM | 
